Assay results: ChEMBL document CHEMBL3608207, “Synthesis, characterization, evaluation and molecular dynamics studies of 5, 6-diphenyl-1,2,4-triazin-3(2H)-one derivatives bearing 5-substituted 1,3,4-oxadiazole as potential anti-inflammatory and analgesic agents” (Eur J Med Chem, 2015)

Key:
Rattus norvegicus [1] = assay: Anti-inflammatory activity in rat model of acute inflammation assessed as inhibition of carrageenan-induced paw oedema dosed at equimolar oral dose relative to 10 mg/kg, po indomethacin dosed 1 hr before carrageenan injection and measured 3 hrs after carrageenan injection; type: functional
Rattus norvegicus [2] = assay: Anti-inflammatory activity in rat Freund's adjuvant induced arthritis model of chronic inflammation assessed as inhibition of right hind paw swelling at equimolar oral dose relative to 10 mg/kg, po indomethacin dosed after 14 days from day of adjuvant injection until day 21 and measured on day 18; type: functional
Rattus norvegicus [3] = assay: Toxicity in healthy albino rat assessed as induction of lethargy up to 500 mg/kg, po; type: organism-based; conditions: in vivo
Rattus norvegicus [4] = assay: (§1) Hepato-toxicity in rat Freund's adjuvant induced arthritis model of chronic inflammation assessed as assessed as SGPT level at equimolar oral dose relative to 10 mg/kg, po indomethacin dosed after 14 days from day of adjuvant injection until day 21 and measured on day 21 (reference value: 34.23 +/- 2.5 U/mL); type: organism-based; conditions: in vivo, 336 h
Mus musculus [5] = assay: Analgesic activity in Swiss albino mouse assessed as reduction in formalin-induced paw licking by measuring time spent on licking during phase-2 at equimolar oral dose relative to 10 mg/kg, po indomethacin dosed 1 hr before formalin challenge and measured 30 mins after formalin injection; type: functional
Rattus norvegicus [6] = assay: Toxicity in healthy albino rat assessed as induction of coma up to 500 mg/kg, po; type: organism-based; conditions: in vivo
Rattus norvegicus [7] = assay: as §1, with “Renal toxicity” for “Hepato-toxicity”, “blood urea nitrogen” for “SGPT”, “23.48” for “34.23”, “1.8 mg/dL)” for “2.5 U/mL)”; type: organism-based; conditions: in vivo, 336 h
Rattus norvegicus [8] = assay: Anti-inflammatory activity in rat Freund's adjuvant induced arthritis model of chronic inflammation assessed as inhibition of right hind paw swelling at equimolar oral dose relative to 10 mg/kg, po indomethacin dosed after 14 days from day of adjuvant injection until day 21 and measured on day 3; type: functional
Rattus norvegicus [9] = assay: Anti-inflammatory activity in rat model of acute inflammation assessed as inhibition of carrageenan-induced paw oedema dosed at equimolar oral dose relative to 10 mg/kg, po indomethacin dosed 1 hr before carrageenan injection and measured 4 hrs after carrageenan injection; type: functional
Rattus norvegicus [10] = assay: Anti-inflammatory activity in rat model of sub-chronic inflammation assessed as inhibition of cotton pellet-induced granuloma by measuring weight of granulation dosed once daily at equimolar oral dose relative to 10 mg/kg, po indomethacin for seven consecutive days from day of cotton pellet insertion (94.13 +/- 8.1 mg); type: functional
Rattus norvegicus [11] = assay: Anti-inflammatory activity in rat Freund's adjuvant induced arthritis model of chronic inflammation assessed as inhibition of right hind paw swelling at equimolar oral dose relative to 10 mg/kg, po indomethacin dosed after 14 days from day of adjuvant injection until day 21 and measured on day 15; type: functional
Mus musculus [12] = assay: Analgesic activity in Swiss albino mouse assessed as reduction in formalin-induced paw licking by measuring time spent on licking during phase-1 at equimolar oral dose relative to 10 mg/kg, po indomethacin dosed 1 hr before formalin challenge and measured 30 mins after formalin injection; type: functional
Rattus norvegicus [13] = assay: Toxicity in healthy albino rat assessed as induction of convulsion up to 500 mg/kg, po; type: organism-based; conditions: in vivo
[14] = Octanol/water partition coefficient, log P of the compound by shake flask method; type: physicochemical
Rattus norvegicus [15] = assay: Anti-inflammatory activity in rat model of acute inflammation assessed as inhibition of carrageenan-induced paw oedema dosed at equimolar oral dose relative to 10 mg/kg, po indomethacin dosed 1 hr before carrageenan injection and measured 5 hrs after carrageenan injection; type: functional
Rattus norvegicus [16] = assay: as §1, with “alkaline phosphatase” for “SGPT”, “17.82” for “34.23”, “1.2 U)” for “2.5 U/mL)”; type: organism-based; conditions: in vivo, 336 h
Rattus norvegicus [17] = assay: Toxicity in healthy albino rat assessed as induction of tremors up to 500 mg/kg, po; type: organism-based; conditions: in vivo
Rattus norvegicus [18] = assay: Anti-inflammatory activity in rat model of acute inflammation assessed as inhibition of carrageenan-induced paw oedema dosed at equimolar oral dose relative to 10 mg/kg, po indomethacin dosed 1 hr before carrageenan injection and measured 5 hrs after carrageenan injection relative to 10 mg/kg, po indomethacin; type: functional
[19] = target: T1, Prostaglandin G/H synthase 1 (Ovis aries, UniProt P05979); assay: Inhibition of ovine COX1 by oxidized TMPD detection based colorimetric assay
T1 sequence (P05979 whole entry): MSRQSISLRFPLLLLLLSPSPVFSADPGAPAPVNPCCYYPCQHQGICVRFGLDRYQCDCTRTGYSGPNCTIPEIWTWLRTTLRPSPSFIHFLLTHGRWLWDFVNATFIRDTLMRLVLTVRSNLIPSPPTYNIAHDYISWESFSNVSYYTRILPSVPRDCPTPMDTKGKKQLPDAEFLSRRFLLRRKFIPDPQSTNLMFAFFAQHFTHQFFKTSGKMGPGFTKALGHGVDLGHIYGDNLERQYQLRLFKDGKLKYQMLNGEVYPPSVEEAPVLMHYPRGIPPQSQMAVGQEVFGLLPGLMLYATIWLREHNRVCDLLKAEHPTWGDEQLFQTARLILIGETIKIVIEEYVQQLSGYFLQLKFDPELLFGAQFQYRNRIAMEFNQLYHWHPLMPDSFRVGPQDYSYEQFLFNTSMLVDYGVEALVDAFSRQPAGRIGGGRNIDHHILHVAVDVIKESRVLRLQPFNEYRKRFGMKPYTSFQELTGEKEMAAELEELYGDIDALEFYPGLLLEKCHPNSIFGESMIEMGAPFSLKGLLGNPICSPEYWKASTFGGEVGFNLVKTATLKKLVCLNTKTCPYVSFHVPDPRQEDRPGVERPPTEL

Rattus norvegicus [20] = assay: Anti-inflammatory activity in rat model of acute inflammation assessed as inhibition of carrageenan-induced paw oedema dosed at equimolar oral dose relative to 10 mg/kg, po indomethacin dosed 1 hr before carrageenan injection and measured 1 hr after carrageenan injection; type: functional
Rattus norvegicus [21] = assay: Anti-inflammatory activity in rat model of acute inflammation assessed as inhibition of carrageenan-induced paw oedema dosed at equimolar oral dose relative to 10 mg/kg, po indomethacin dosed 1 hr before carrageenan injection and measured 6 hrs after carrageenan injection; type: functional
Rattus norvegicus [22] = assay: Anti-inflammatory activity in rat assessed as inhibition of arachidonic acid-induced paw edema dosed at equimolar oral dose relative to 10 mg/kg, po indomethacin dosed 30 mins before arachidonic acid injection and measured 1 hr after arachidonic acid injection; type: functional
Rattus norvegicus [23] = assay: Anti-inflammatory activity in rat model of acute inflammation assessed as inhibition of carrageenan-induced paw oedema dosed at equimolar oral dose relative to 10 mg/kg, po indomethacin dosed 1 hr before carrageenan injection and measured 2 hrs after carrageenan injection; type: functional
Rattus norvegicus [24] = assay: as §1, with “Renal toxicity” for “Hepato-toxicity”, “creatinine” for “SGPT”, “0.62” for “34.23”, “0.049 mg/dL)” for “2.5 U/mL)”; type: organism-based; conditions: in vivo, 336 h
Mus musculus [25] = assay: Analgesic activity in Swiss albino mouse assessed as reduction in number of writhing episodes at equimolar oral dose relative to 10 mg/kg, po indomethacin measured 30 mins following acetic acid injection; type: functional
Rattus norvegicus [26] = assay: Anti-inflammatory activity in rat Freund's adjuvant induced arthritis model of chronic inflammation assessed as inhibition of right hind paw swelling at equimolar oral dose relative to 10 mg/kg, po indomethacin dosed after 14 days from day of adjuvant injection until day 21 and measured on day 12; type: functional
[27] = In-vitro anti-inflammatory activity assessed as inhibition of denaturation of bovine serum albumin at equimolar dose relative to 10 mg indomethacin; type: functional
Rattus norvegicus [28] = assay: as §1, with “Renal toxicity” for “Hepato-toxicity”, “total protein” for “SGPT”, “1.78” for “34.23”, “0.11 g/dL)” for “2.5 U/mL)”; type: organism-based; conditions: in vivo, 336 h

Row | Structure (SMILES) | inhibition (INH) (Rattus norvegicus [1]) | inhibition (INH) (Rattus norvegicus [2]) | Activity (Rattus norvegicus [3]) | Activity (Rattus norvegicus [4]) | inhibition (INH) (Mus musculus [5]) | Activity (Rattus norvegicus [6]) | Activity (Rattus norvegicus [7]) | inhibition (INH) (Rattus norvegicus [8]) | inhibition (INH) (Rattus norvegicus [9]) | Activity (Rattus norvegicus [10]) | inhibition (INH) (Rattus norvegicus [11]) | inhibition (INH) (Mus musculus [12]) | Activity (Rattus norvegicus [13]) | logP [14] | inhibition (INH) (Rattus norvegicus [15]) | Activity (Rattus norvegicus [16]) | Activity (Rattus norvegicus [17]) | inhibition (INH) (Rattus norvegicus [18]) | IC50 [19] | inhibition (INH) (Rattus norvegicus [20]) | other results
1 | O=c1nc(-c2ccccc2)c(-c2ccccc2)nn1Cc1nnc(-c2ccc(O)cc2O)o1 | 53.27% | 52.44% | Non-toxic | 39.67 U/ml | 75.21% | Non-toxic | 38.67 mg/dL | 31.26% | 59.74% | 56.11 mg | 49.82% | 10.73% | Non-toxic | 3.46 | 59.07% | 19.56 U | Non-toxic | 94.3% | 43.3 µM | 24.71% | inhibition (INH) (Rattus norvegicus [21]): 57.56%; inhibition (INH) (Rattus norvegicus [22]): 19.19%; inhibition (INH) (Rattus norvegicus [23]): 44.47%; Activity (Rattus norvegicus [24]): 0.72 mg/dL; inhibition (INH) (Mus musculus [25]): 72.4%; inhibition (INH) (Rattus norvegicus [26]): 43.97%; inhibition [27]: 80.8%; Activity (Rattus norvegicus [28]): 1.88 g/dL
2 | O=c1nc(-c2ccccc2)c(-c2ccccc2)nn1Cc1nnc(-c2ccc(Cl)cc2)o1 | 51.32% | 48.87% | Non-toxic | 42.45 U/ml | 75.85% | Non-toxic | 42.28 mg/dL | 30.02% | 54.99% | 57.8 mg | 45.86% | 12.11% | Non-toxic | 3.91 | 57.64% | 20.28 U | Non-toxic | 92.02% | 44.2 µM | 22.98% | inhibition (INH) (Rattus norvegicus [21]): 55.47%; inhibition (INH) (Rattus norvegicus [22]): 17.58%; inhibition (INH) (Rattus norvegicus [23]): 39.28%; Activity (Rattus norvegicus [24]): 0.78 mg/dL; inhibition (INH) (Mus musculus [25]): 73.26%; inhibition (INH) (Rattus norvegicus [26]): 43.36%; inhibition [27]: 78.2%; Activity (Rattus norvegicus [28]): 1.91 g/dL
